Laboratory results: patent US20060148832A1, “Use of 2-amino-2h-quinazoline derivatives for producing therapeutic agents” (priority 2003, published 2006)

Key:
[1] = Cyclization of the anagrelide prodrug to anagrelide in aqueous medium as a function of pH; format: physicochemical; details: 37° C., after one hour
From the text: The 2-amino-2H-quinazoline derivatives according to the invention can be cyclized to the anagrelide in aqueous medium as a function of the pH without addition of other adjuvants or boiling under reflux for hours. […] A cyclization of the compound with the general chemical formula I in strongly acidic pH range, as prevails, for example, in the stomach of mammals, has only been detected up to a certain small percentage.
For the cyclization, 0.3 mmol of the anagrelide prodrug methyl-(2-amino-5,6-dichloro-2H-quinazolin-3-yl) acetate hydrochloride (analysis: UV-Maxima 217,262 nm; MW 324.59; mp>250° C.), corresponding to the general formula I, wherein R1 indicates an alkyl group with one carbon atom, R2 and R3 each indicate a hydrogen atom, and R4 and R5 each indicate a chlorine atom, was added to 10 ml of an aqueous hydrochloric acid solution (0.1 M HCl), at 37° C. with slight stirring. After one hour, 9.6% of the prodrug was converted to anagrelide. [drawing 2]
For the cyclization, 0.3 mmol of the anagrelide prodrug methyl-(2-amino-5,6-dichloro-2H-quinazolin-3-yl) acetate hydrochloride (MW 324.59) corresponding to the general formula I, wherein R1 indicates an alkyl group with one carbon atom, R2 and R3 each indicate a hydrogen atom, and R4 and R5 each indicate a chlorine atom, was added to 10 ml of pH-neutral water, at 37° C. with slight stirring. After one hour, 58% of the prodrug was converted to anagrelide.
For the cyclization, 0.3 mmol of the anagrelide prodrug methyl-(2-amino-5,6-dichloro-2H-quinazolin-3-yl) acetate hydrochloride corresponding to the general formula I, wherein R1 indicates an alkyl group with one carbon atom, R2 and R3 each indicate a hydrogen atom, and R4 and R5 each indicate a chlorine atom, was added to 10 ml of an aqueous basic solution (0.1 M NaOH), at 37° C. with slight stirring. After one hour, 100% of the prodrug was converted to anagrelide.
(§1) For the cyclization, 0.3 mmol of the anagrelide prodrug ethyl-(2-amino-5,6-dichloro-2H-quinazolin-3-yl) acetate hydrochloride hemihydrate, corresponding to the general formula I, wherein R1 indicates an alkyl group with two carbon atoms, R2 and R3 each indicate a hydrogen atom, and R4 and R5 each indicate a chlorine atom, was added to 10 ml of an aqueous basic solution (15 g of sodium hydrogen carbonate in 1 liter of water), at 37° C. with slight stirring. This basic solution was selected because it corresponds to a common test system for simulation of the milieu of the intestinal juice (pH between 8 and 10). After one hour, 100% of the prodrug was converted to anagrelide.
as §1, with “methyl-(2-amino-5,6-dichloro-2H-quinazolin-3-yl)” for “ethyl-(2-amino-5,6-dichloro-2H-quinazolin-3-yl)”, “one” for “two”, “atom,” for “atoms,”
as §1, with “hydrobromide (analysis: UV maxima 204, 216, 262 nm; mp 291-293,” for “hydrochloride hemihydrate,”

blood platelets = details: mentioned in U.S. Pat. No. 4,146,718; cited from earlier work
[2] = anagrelide base; cited from earlier work
thrombocytes = details: dose of 3 mg/day, after one week; cited from earlier work
[3] = 0.3 mmol in 10 ml aqueous basic solution (15 g sodium hydrogen carbonate in 1 liter water; simulated intestinal juice, pH between 8 and 10)

Br.CCOC(=O)CN1Cc2c(ccc(Cl)c2Cl)N=C1N [Ethyl-(2-amino-5,6-dichloro-2H-quinazolin-3-yl) acetate hydrobromide]
prodrug converted to anagrelide [1, 3]: 100%
effect on blood platelets (blood platelets): anti-aggregative effect on blood platelets

Ethyl-(2-amino-5,6-dichloro-2H-quinazolin-3-yl) acetate hydrochloride hemihydrate
prodrug converted to anagrelide [1, 3]: 100%

COC(=O)CN1C=c2c(Cl)c(Cl)ccc2=NC1N.Cl (stereo not drawn) [Methyl-(2-amino-5,6-dichloro-2H-quinazolin-3-yl) acetate hydrochloride]
prodrug converted to anagrelide ([1]; 0.3 mmol in 10 ml aqueous basic solution (0.1 M NaOH)): 100%
prodrug converted to anagrelide ([1]; 0.3 mmol in 10 ml aqueous hydrochloric acid solution (0.1 M HCl)): 9.6%
prodrug converted to anagrelide ([1]; 0.3 mmol in 10 ml pH-neutral water): 58%

O=C1CN2Cc3c(ccc(Cl)c3Cl)N=C2N1 [anagrelide, 6,7-dichloro-1,5-dihydroimidazo-[2,1-b]-quinazolin-2-[3H]-one]
solubility in water [2]: difficultly soluble in water
decrease in thrombocytes (thrombocytes): approximately 50%

Methyl-(2-amino-5,6-dichloro-2H-quinazolin-3-yl) acetate hydrochloride hemihydrate
prodrug converted to anagrelide [1, 3]: 100%
